# Test results published in ChEMBL document CHEMBL5506073, “Discovery of Novel Ortho-Aminophenol Derivatives Targeting Lipid Peroxidation with Potent Antiferroptotic Activities” (J Med Chem, 2024).
# The source made the active and inactive calls. The rule behind the calls is not given here.
# Key:
# HT-1080 [1] = experiment: Inhibition of RSL3-induced ferroptosis in human HT-1080 cells assessed as cell viability incubated for 24 hrs by CCK8 assay; assay type: functional, cell-based; conditions: for EC50: HT-1080, 24 h
# Mus musculus [2] = experiment: Protection against APAP-induced acute liver injury in overnight fasted C57BL/6 mouse model assessed as decrease in plasma AST level at 10 mg/kg, ip administered 1 hr prior to APAP treatment measured after 12 hrs post-APAP treatment under continuous fasting condition; assay type: functional, organism-based; conditions: time 13.0 hrs
# Mus musculus [3] = experiment: Protection against APAP-induced acute liver injury in overnight fasted C57BL/6 mouse model assessed as decrease in plasma ALT level at 10 mg/kg, ip administered 1 hr prior to APAP treatment measured after 12 hrs post-APAP treatment under continuous fasting condition; assay type: functional, organism-based; conditions: time 13.0 hrs
# Mus musculus [4] = experiment: Protection against APAP-induced acute liver injury in overnight fasted C57BL/6 mouse model assessed as reduction in 4-HNE formation in liver at 10 mg/kg, ip administered 1 hr prior to APAP treatment measured after 12 hrs post-APAP treatment under continuous fasting condition by IHC analysis; assay type: functional, organism-based; conditions: time 13.0 hrs
# HT-1080 [5] = experiment: Inhibition of RSL3-induced ferroptosis in human HT-1080 cells assessed as cell viability at 200 nM incubated for 24 hrs by CCK8 assay; assay type: functional, cell-based
# HKC [6] = experiment: Inhibition of RSL3-induced ferroptosis in human HKC cells assessed as cell viability at 200 nM incubated for 24 hrs by CCK8 assay; assay type: functional, cell-based
# HK-2 [7] = experiment: Inhibition of RSL3-induced ferroptosis in human HK-2 cells assessed as cell viability at 200 nM incubated for 24 hrs by CCK8 assay; assay type: functional, cell-based
# KHOS/NP [8] = experiment: Inhibition of RSL3-induced ferroptosis in human KHOS/NP cells assessed as cell viability at 200 nM incubated for 24 hrs by CCK8 assay; assay type: functional, cell-based
# SW480 [9] = experiment: Inhibition of RSL3-induced ferroptosis in human SW480 cells assessed as cell viability at 200 nM incubated for 24 hrs by CCK8 assay; assay type: functional, cell-based
# HTR-8/SVneo [10] = experiment: Inhibition of RSL3-induced ferroptosis in human HTR-8/SVneo cells assessed as cell viability at 200 nM incubated for 24 hrs by CCK8 assay; assay type: functional, cell-based
# HT-1080 [11] = experiment: Inhibition of FIN56-induced ferroptosis in human HT-1080 cells assessed as cell viability at 200 nM incubated for 24 hrs by CCK8 assay; assay type: functional, cell-based
# HKC [12] = experiment: Inhibition of FIN56-induced ferroptosis in human HKC cells assessed as cell viability at 200 nM incubated for 24 hrs by CCK8 assay; assay type: functional, cell-based
# HK-2 [13] = experiment: Inhibition of FIN56-induced ferroptosis in human HK-2 cells assessed as cell viability at 200 nM incubated for 24 hrs by CCK8 assay; assay type: functional, cell-based
# KHOS/NP [14] = experiment: Inhibition of FIN56-induced ferroptosis in human KHOS/NP cells assessed as cell viability at 200 nM incubated for 24 hrs by CCK8 assay; assay type: functional, cell-based
# SW480 [15] = experiment: Inhibition of FIN56-induced ferroptosis in human SW480 cells assessed as cell viability at 200 nM incubated for 24 hrs by CCK8 assay; assay type: functional, cell-based
# HTR-8/SVneo [16] = experiment: Inhibition of FIN56-induced ferroptosis in human HTR-8/SVneo cells assessed as cell viability at 200 nM incubated for 24 hrs by CCK8 assay; assay type: functional, cell-based
# HT-1080 [17] = experiment: Inhibition of ferroptosis in human HT-1080 cells assessed as reversal of RSL3-induced cell shrinkage; assay type: functional, cell-based
# HT-1080 [18] = experiment: Inhibition of ferroptosis in human HT-1080 cells assessed as reversal of RSL3-induced swelling; assay type: functional, cell-based
# HT-1080 [19] = experiment: Inhibition of ferroptosis in human HT-1080 cells assessed as reversal of RSL3-induced membrane rupture; assay type: functional, cell-based
# HT-1080 [20] = experiment: Inhibition of ferroptosis in human HT-1080 cells assessed as reversal of RSL3-induced normal morphological loss; assay type: functional, cell-based
# HT-1080 [21] = experiment: Inhibition of RSL3-induced lipid peroxidation in human HT-1080 cells assessed as reduction in green fluorescence by C11-BODIPY581/591 probe based analysis; assay type: functional, cell-based
# HT-1080 [22] = experiment: Inhibition of RSL3-induced lipid peroxidation in human HT-1080 cells assessed as reduction in MDA adduct accumulation by ELISA; assay type: functional, cell-based
# HT-1080 [23] = experiment: Effect on lipid metabolism in human HT-1080 cells assessed as change in ACSL4 mRNA level by qRT-PCR analysis; assay type: functional, cell-based
# HT-1080 [24] = experiment: Effect on lipid metabolism in human HT-1080 cells assessed as change in ALOX15 mRNA level by qRT-PCR analysis; assay type: functional, cell-based
# HT-1080 [25] = experiment: Effect on lipid metabolism in human HT-1080 cells assessed as change in COX2 mRNA level by qRT-PCR analysis; assay type: functional, cell-based
# HT-1080 [26] = experiment: Effect on glutathione metabolic pathway in human HT-1080 cells assessed as change in GPX4 mRNA level by qRT-PCR analysis; assay type: functional, cell-based
# HT-1080 [27] = experiment: Effect on glutathione metabolic pathway in human HT-1080 cells assessed as change in SLC7A11 mRNA level by qRT-PCR analysis; assay type: functional, cell-based
# HT-1080 [28] = experiment: Effect on iron metabolism in human HT-1080 cells assessed as change in DMT1 mRNA level by qRT-PCR analysis; assay type: functional, cell-based
# HT-1080 [29] = experiment: Effect on iron metabolism in human HT-1080 cells assessed as change in TFRC mRNA level by qRT-PCR analysis; assay type: functional, cell-based
# HT-1080 [30] = experiment: Effect on iron metabolism in human HT-1080 cells assessed as change in FTH1 mRNA level by qRT-PCR analysis; assay type: functional, cell-based
# [31] = Antioxidant activity assessed as DPPH radical scavenging activity at 20 uM incubated for 30 mins by absorbance based assay; assay type: functional
# Mus musculus [32] = experiment: Protection against kidney ischemia-reperfusion injury in C57BL/6 mouse model assessed as decrease in serum creatinine level at 10 mg/kg, ip administered twice 1 hr prior to ischemia onset measured after 24 hrs post-ischemia; assay type: functional, organism-based; conditions: time 25.0 hrs
# Mus musculus [33] = experiment: Protection against kidney ischemia-reperfusion injury in C57BL/6 mouse model assessed as decrease in BUN level at 10 mg/kg, ip administered twice 1 hr prior to ischemia onset measured after 24 hrs post-ischemia; assay type: functional, organism-based; conditions: time 25.0 hrs
# Mus musculus [34] = experiment: Protection against kidney ischemia-reperfusion injury in C57BL/6 mouse model assessed as decrease in renal tubule dilation at 10 mg/kg, ip administered twice 1 hr prior to ischemia onset measured after 24 hrs post-ischemia by H and E staining based analysis; assay type: functional, organism-based; conditions: time 25.0 hrs
# Mus musculus [35] = experiment: Protection against kidney ischemia-reperfusion injury in C57BL/6 mouse model assessed as decrease in brush edges loss in kidney at 10 mg/kg, ip administered twice 1 hr prior to ischemia onset measured after 24 hrs post-ischemia by H and E staining based analysis; assay type: functional, organism-based; conditions: time 25.0 hrs
# Mus musculus [36] = experiment: Protection against kidney ischemia-reperfusion injury in C57BL/6 mouse model assessed as decrease in cytoplasmic vacuoles in kidney at 10 mg/kg, ip administered twice 1 hr prior to ischemia onset measured after 24 hrs post-ischemia by H and E staining based analysis; assay type: functional, organism-based; conditions: time 25.0 hrs
# Mus musculus [37] = experiment: Protection against kidney ischemia-reperfusion injury in C57BL/6 mouse model assessed as decrease in KIM-1 level in kidney at 10 mg/kg, ip administered twice 1 hr prior to ischemia onset measured after 24 hrs post-ischemia by IHC analysis; assay type: functional, organism-based; conditions: time 25.0 hrs
# Mus musculus [38] = experiment: (§1) Protection against APAP-induced acute liver injury in overnight fasted C57BL/6 mouse model assessed as normal pathology of liver at 10 mg/kg, ip administered 1 hr prior to APAP treatment measured after 12 hrs post-APAP treatment under continuous fasting condition by H and E staining based analysis; assay type: functional, organism-based; conditions: time 13.0 hrs
# Mus musculus [39] = experiment: Protection against APAP-induced acute liver injury in overnight fasted C57BL/6 mouse model assessed as reversal of native liver architecture at 10 mg/kg, ip administered 1 hr prior to APAP treatment measured after 12 hrs post-APAP treatment under continuous fasting condition by H and E staining based analysis; assay type: functional, organism-based; conditions: time 13.0 hrs
# Mus musculus [40] = experiment: as §1, with “reduction in necrotic areas” for “normal pathology”; assay type: functional, organism-based; conditions: time 13.0 hrs
# [41] = Antioxidant activity assessed as DPPH radical scavenging activity at 10 uM incubated for 30 mins by absorbance based assay; assay type: functional
# HT-1080 [42] = experiment: Inhibition of RSL3-induced ferroptosis in human HT-1080 cells assessed as cell viability at 0.5 uM incubated for 24 hrs by CCK8 assay; assay type: functional, cell-based
smiles,measurement,setting,value
N#Cc1cccc(/C=N/NC(=O)c2cccc(O)c2N)c1,EC50,HT-1080 [1],727 nM
CCOC(=O)c1cccc(O)c1N,inhibition,HT-1080 [1],Dose-Dependent Effect
same,EC50,HT-1080 [1],127 nM
Nc1c(O)cccc1-c1nnc(SCc2ccc([N+](=O)[O-])cc2)o1,EC50,HT-1080 [1],871 nM
Cc1cc2nc(-c3cccc(O)c3N)[nH]c2cc1C,Activity,Mus musculus [2],Active
same,Activity,Mus musculus [3],Active
same,Activity,Mus musculus [4],Active
same,EC50,HT-1080 [1],181 nM
same,inhibition,HT-1080 [5],Active
same,inhibition,HKC [6],Active
same,inhibition,HK-2 [7],Active
same,inhibition,KHOS/NP [8],Active
same,inhibition,SW480 [9],Active
same,inhibition,HTR-8/SVneo [10],Active
same,inhibition,HT-1080 [11],Active
same,inhibition,HKC [12],Active
same,inhibition,HK-2 [13],Active
same,inhibition,KHOS/NP [14],Active
same,inhibition,SW480 [15],Active
same,inhibition,HTR-8/SVneo [16],Active
same,inhibition,HT-1080 [17],Active
same,inhibition,HT-1080 [18],Active
same,inhibition,HT-1080 [19],Active
same,inhibition,HT-1080 [20],Active
same,inhibition,HT-1080 [21],Active
same,inhibition,HT-1080 [22],Active
same,Activity,HT-1080 [23],inactive
same,Activity,HT-1080 [24],inactive
same,Activity,HT-1080 [25],inactive
same,Activity,HT-1080 [26],inactive
same,Activity,HT-1080 [27],inactive
same,Activity,HT-1080 [28],inactive
same,Activity,HT-1080 [29],inactive
same,Activity,HT-1080 [30],inactive
same,Activity,[31],Active
same,Activity,Mus musculus [32],Active
same,Activity,Mus musculus [33],Active
same,Activity,Mus musculus [34],Active
same,Activity,Mus musculus [35],Active
same,Activity,Mus musculus [36],Active
same,Activity,Mus musculus [37],Active
same,Activity,Mus musculus [38],Active
same,Activity,Mus musculus [39],Active
same,Activity,Mus musculus [40],Active
Nc1c(O)cccc1C(=O)N/N=C/c1ccc([N+](=O)[O-])cc1,EC50,HT-1080 [1],649 nM
Nc1c(O)cccc1-c1nnc(SCc2ccccc2)o1,EC50,HT-1080 [1],238 nM
Cc1ccc(CSc2nnc(-c3cccc(O)c3N)o2)cc1,Activity,Mus musculus [2],Active
same,Activity,Mus musculus [3],Active
same,Activity,Mus musculus [4],Active
same,EC50,HT-1080 [1],46 nM
same,inhibition,HT-1080 [5],Active
same,inhibition,HKC [6],Active
same,inhibition,HK-2 [7],Active
same,inhibition,KHOS/NP [8],Active
same,inhibition,SW480 [9],Active
same,inhibition,HTR-8/SVneo [10],Active
same,inhibition,HT-1080 [11],Active
same,inhibition,HKC [12],Active
same,inhibition,HK-2 [13],Active
same,inhibition,KHOS/NP [14],Active
same,inhibition,SW480 [15],Active
same,inhibition,HTR-8/SVneo [16],Active
same,inhibition,HT-1080 [17],Active
same,inhibition,HT-1080 [18],Active
same,inhibition,HT-1080 [19],Active
same,inhibition,HT-1080 [20],Active
same,inhibition,HT-1080 [21],Active
same,inhibition,HT-1080 [22],Active
same,Activity,HT-1080 [23],inactive
same,Activity,HT-1080 [24],inactive
same,Activity,HT-1080 [25],inactive
same,Activity,HT-1080 [26],inactive
same,Activity,HT-1080 [27],inactive
same,Activity,HT-1080 [28],inactive
same,Activity,HT-1080 [29],inactive
same,Activity,HT-1080 [30],inactive
same,Activity,[31],Active
same,Activity,Mus musculus [32],Active
same,Activity,Mus musculus [33],Active
same,Activity,Mus musculus [34],Active
same,Activity,Mus musculus [35],Active
same,Activity,Mus musculus [36],Active
same,Activity,Mus musculus [37],Active
same,Activity,Mus musculus [38],Active
same,Activity,Mus musculus [39],Active
same,Activity,Mus musculus [40],Active
Cn1c(-c2cccc(O)c2N)nc2ccccc21,EC50,HT-1080 [1],237 nM
Nc1c(O)cccc1-c1nnc(SCC(=O)O)o1,EC50,HT-1080 [1],> 1000 nM
Nc1c(O)cccc1C(=O)N/N=C/c1ccc(C(=O)O)cc1,EC50,HT-1080 [1],> 1000 nM
Nc1c(O)cccc1-c1nnc(SCc2ccc(F)cc2)o1,EC50,HT-1080 [1],348 nM
CCOC(=O)c1ccc(NC2CCCCC2)c(N)c1,EC50,HT-1080 [1],203 nM
Nc1c(O)cccc1-c1nnc(SCc2ccc3ccccc3c2)o1,EC50,HT-1080 [1],603 nM
CC(C)OC(=O)c1cccc(O)c1N,EC50,HT-1080 [1],388 nM
same,Activity,[41],Active
same,inhibition,HT-1080 [42],Active
